This is an account of results in the NIST ThermoML archive (doi:10.1016/j.tca.2015.05.023).

± gives the expanded uncertainty stated by the source.

The nature of data set [1]: Molar enthalpy of transition or fusion. The settings on record: Crystal; DSC.
For data set [2] the following is noted: Crystal; DTA.

In the case of `O=[N+]([O-])[O-].[Na+]` [sodium nitrate], in data set [1], the “Molar enthalpy of transition or fusion” value worked out at 3.84 ± 0.122 kcal/mol. The Triple point temperature in data set [2] came out at 581.15 ± 1 K.
